Experimental data as given in BindingDB's records for doi:10.1021/jm049161u (Pfizer, 2006).

What was measured:
[1] = biological target: Peptidyl-prolyl cis-trans isomerase FKBP1A (Bos taurus, UniProt P18203); test: Peptidyl Prolyl Isomerase (PPIase) Inibition Assay
Procedure: (§1) It is based on the observation that chymotrypsin cleaves the C-terminal amide bond only in the trans conformer of the chromogenic substrate. The rapid hydrolysis perturbs the cis-trans conformational equilibrium, which allows one to monitor the PPIase-catalyzed cis-to-trans isomerization. […] Rate constants were generated from the absorbance versus time plots at 8-12 compound concentrations. The Kiapp was determined from the corrected rate constants using an IC50 equation or a tight-binding equation by Morrison.

[2] = biological target: Peptidyl-prolyl cis-trans isomerase FKBP1A (Homo sapiens, UniProt P62942); test: Peptidyl Prolyl Isomerase (PPIase) Inibition Assay; details: pH 8; 15 °C
Peptidyl-prolyl cis-trans isomerase FKBP1A (Homo sapiens, UniProt P62942), sequence (P62942 whole entry): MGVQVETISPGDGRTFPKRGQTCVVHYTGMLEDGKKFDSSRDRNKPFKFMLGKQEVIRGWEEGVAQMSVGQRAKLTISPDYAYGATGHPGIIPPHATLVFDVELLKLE
Procedure: as §1

Peptidyl-prolyl cis-trans isomerase FKBP1A (Bos taurus, UniProt P18203), sequence (P18203 whole entry): as the sequence (P62942 whole entry) above, with M50V, H95N, V99I counted along it

Row | Ki [1] [nM] | Ki [2] [nM] | Compound
1 | 2700 |  | COc1cc2c(c(OC)c1)C1C3CCCC(C(=O)N1CC2)N3C(=O)Nc1ccccc1 (configuration not stated) [4,6-dimethoxy-12-oxo-N-phenyl-11,17-diazatetracyclo[11.3.1.0^{2,11}.0^{3,8}]heptadeca-3(8),4,6-triene-17-carboxamide]
2 |  | 8100 | COc1cc2c(c(OC)c1)C1C3CCCC(C(=O)N1CC2)N3C(=O)C(=O)c1cc(Cl)ccc1Cl (configuration not stated) [1-(2,5-dichlorophenyl)-2-{4,6-dimethoxy-12-oxo-11,17-diazatetracyclo[11.3.1.0^{2,11}.0^{3,8}]heptadeca-3(8),4,6-trien-17-yl}ethane-1,2-dione]
3 | 772 |  | COc1cc2c(c(OC)c1)C1C3CCCC(C(=O)N1CC2)N3C(=O)Nc1ccc([N+](=O)[O-])cc1 (configuration not stated) [4,6-dimethoxy-N-(4-nitrophenyl)-12-oxo-11,17-diazatetracyclo[11.3.1.0^{2,11}.0^{3,8}]heptadeca-3(8),4,6-triene-17-carboxamide]
4 | 357 |  | COc1cc2c(c(OC)c1)C1C3CCCC(C(=O)N1CC2)N3C(=O)Nc1ccccc1OC (configuration not stated) [4,6-dimethoxy-N-(2-methoxyphenyl)-12-oxo-11,17-diazatetracyclo[11.3.1.0^{2,11}.0^{3,8}]heptadeca-3(8),4,6-triene-17-carboxamide]
5 | 7000 |  | COc1cc2c(c(OC)c1)C1C3CCCC(C(=O)N1CC2)N3C(=O)Nc1ccc(F)cc1F (configuration not stated) [N-(2,4-difluorophenyl)-4,6-dimethoxy-12-oxo-11,17-diazatetracyclo[11.3.1.0^{2,11}.0^{3,8}]heptadeca-3(8),4,6-triene-17-carboxamide]
6 | 330 |  | COc1cc2c(c(OC)c1)C1C3CCCC(C(=O)N1CC2)N3C(=O)Nc1ccccc1C (configuration not stated) [4,6-dimethoxy-N-(2-methylphenyl)-12-oxo-11,17-diazatetracyclo[11.3.1.0^{2,11}.0^{3,8}]heptadeca-3(8),4,6-triene-17-carboxamide]

Row | Compound | Ki [1] [nM] | Ki [2] [nM]
7 | COc1cc(OC)cc(N2C=C3C4CCCC(C(=O)N3CC2=O)N4C(=O)C(=O)c2cc(OC)c(OC)c(OC)c2)c1 (configuration not stated) [4-(3,5-dimethoxyphenyl)-13-[2-oxo-2-(3,4,5-trimethoxyphenyl)acetyl]-4,7,13-triazatricyclo[7.3.1.0^{2,7}]tridec-2-ene-5,8-dione] | 54 | 
